# Source: paper PMC9537541, “Synthesis and anticancer activity of new benzensulfonamides incorporating s-triazines as cyclic linkers for inhibition of carbonic anhydrase IX” (Scientific Reports, 2022)
# Where a name gives a salt, the structure may show the parent alone.
# How the values were obtained:
# hCA I = target: T1, hCA I (Homo sapiens, UniProt P00915); assay: stopped-flow CO2 hydrase assay, hCA I; assay type: biochemical; conditions: stopped flow technique, mean from 3 different assays
# T1 construct: made in house
# T1 sequence (P00915 whole entry): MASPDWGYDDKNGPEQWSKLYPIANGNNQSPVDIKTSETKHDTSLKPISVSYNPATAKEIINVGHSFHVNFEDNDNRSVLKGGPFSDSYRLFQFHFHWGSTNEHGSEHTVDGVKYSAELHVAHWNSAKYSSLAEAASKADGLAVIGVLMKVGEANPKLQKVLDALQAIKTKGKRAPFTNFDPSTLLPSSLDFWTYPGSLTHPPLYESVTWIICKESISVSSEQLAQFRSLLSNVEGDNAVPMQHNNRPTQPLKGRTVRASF
# Procedure: (§1) Target compounds of series (A) and (B) were screened as inhibitors concerning the physiologically relevant hCAs; cytosolic isoforms (hCA I and II) in addition to the transmembrane tumor related isoforms (hCA IX and XII) via a stopped-flow assay of carbonic anhydrase catalyzed CO2 hydration. Acetazolamide (AAZ), CA I drug, was also incorporated in the assays as a standard drug. […] Four CA isoforms inhibition activity was measured by assaying CA catalyzed CO2 hydration via an applied photophysics stopped-flow instrument. PRISM 3 and the Cheng-prusoff equation were used to determine the inhibition constant by non-linear least square methods as reported, and represent the mean from three different determination at least. All tested carbonic anhydrase isoforms were recombinant proteins prepared in lab as described earlier,[57].
# hCA II = target: T2, hCA II (Homo sapiens, UniProt P00918); assay: stopped-flow CO2 hydrase assay, hCA II; assay type: biochemical; conditions: stopped flow technique, mean from 3 different assays
# T2 construct: made in house
# Procedure: as §1
# hCA IX = target: T3, hCA IX (Homo sapiens, UniProt Q16790); assay: stopped-flow CO2 hydrase assay, hCA IX; assay type: biochemical; conditions: for Ki: stopped flow technique, mean from 3 different assays; for Selectivity index (SI) I/IX: hCA IX over off-target hCA I; for Selectivity index (SI) II/IX: hCA IX over off-target hCA II
# T3 construct: made in house
# Procedure: as §1
# hCA XII = target: T4, hCA XII (Homo sapiens, UniProt O43570); assay: stopped-flow CO2 hydrase assay, hCA XII; assay type: biochemical; conditions: for Ki: stopped flow technique, mean from 3 different assays; for Selectivity index (SI) I/XII: hCA XII over off-target hCA I; for Selectivity index (SI) II/XII: hCA XII over off-target hCA II
# T4 construct: made in house
# T4 sequence (O43570 25-354): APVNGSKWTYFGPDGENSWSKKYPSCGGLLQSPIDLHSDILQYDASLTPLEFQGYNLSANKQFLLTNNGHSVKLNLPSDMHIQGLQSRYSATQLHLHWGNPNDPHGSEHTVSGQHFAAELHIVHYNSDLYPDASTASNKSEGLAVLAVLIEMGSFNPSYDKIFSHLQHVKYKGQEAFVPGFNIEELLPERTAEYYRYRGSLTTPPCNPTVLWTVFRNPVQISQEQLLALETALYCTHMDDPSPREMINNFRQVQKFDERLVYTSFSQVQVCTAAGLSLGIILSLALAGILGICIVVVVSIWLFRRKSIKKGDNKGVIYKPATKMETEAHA
# Procedure: as §1
# CNS cancer (SNB-75) = assay: NCI single dose SRB screen, SNB-75; assay type: cell-based; conditions: Homo sapiens, SNB-75, 48 h, 10^−5 M single dose, read-out: GI% CNS cancer (SNB-75)
# Procedure: (§2) Target compounds in series (A) and (B), were submitted to the National Cancer Institute (NCI) Developmental Therapeutic Program (www.dtp.nci.nih.gov), where they have been assessed, in vitro for their anticancer activity. Two series (A) and (B), were screened in a single dose (10 µM) versus full panel composed of 60 cancer cell lines, in accordance with protocol of drug evaluation branch, NCI, Bethesda. Sulforhodamine B (SRB) colorimetric assay was used to determine cell growth and viability,[40].
# (§3) Protocol of Drug Evaluation Branch, NCI, Bethesda, was adopted in the antitumor assay. Assessment of cell growth and viability was carried out utilizing SRB assay and 48 h drug exposure protocol as previously reported,[40].
# Renal cancer (UO-31) = assay: NCI single dose SRB screen, UO-31; assay type: cell-based; conditions: Homo sapiens, UO-31, 48 h, 10^−5 M single dose, read-out: GI% Renal cancer (UO-31)
# Procedure: as §2, §3
# [1] = system: Breast cancer (MDA-MB-468); assay: NCI single dose SRB screen, MDA-MB-468; assay type: cell-based; conditions: Homo sapiens, MDA-MB-468, 48 h, 10^−5 M single dose, 48 h, SRB; read-out: GI% Breast cancer (MDA-MB-468)
# Procedure: as §2, §3
# Leukemia (SR) = assay: NCI single dose SRB screen, SR; assay type: cell-based; conditions: 48 h, 10^−5 M single dose, read-out: GI% Leukemia (SR)
# Procedure: as §2, §3
Structure (SMILES),Ki (hCA I),Ki (hCA II),Ki (hCA IX),Ki (hCA XII),melting point,Selectivity index (SI) I/IX (hCA IX),Selectivity index (SI) II/IX (hCA IX),Selectivity index (SI) I/XII (hCA XII),Selectivity index (SI) II/XII (hCA XII),inhibition at 10 µM (CNS cancer (SNB-75)),inhibition at 10 µM (Renal cancer (UO-31)),inhibition at 10 µM [1],inhibition at 10 µM (Leukemia (SR))
"CC1CCC2(CC1)N=C(N)N=C(N)N2c1ccc(S(N)(=O)=O)cc1 (centres unmarked) (as salt: HCl) [Compound 6c, 4-(2,4-Diamino-9-methyl-1,3,5-triazaspiro[5.5]undeca-2,4-dien-1-yl)benzene-1-sulfonamide.HCl]",,,,,245 to 247 °C,,,,,,,,
"CC1CCC2(CC1)N=C(N)N=C(N)N2c1ccc(S(N)(=O)=O)cc1 (centres unmarked) [Compound 6c, 4-(2,4-Diamino-9-methyl-1,3,5-triazaspiro[5.5]undeca-2,4-dien-1-yl)benzene-1-sulfonamide.HCl]",0.145 µM,0.179 µM,1.85 µM,4.91 µM,,0.1,0.1,0.02,0.04,21%,16%,≤ 10%,≤ 10%
"NC1=NC2(CCCC2)N(c2ccc(S(N)(=O)=O)cc2)C(N)=N1 [Compound 6a, 4-(7,9-Diamino-6,8,10-triazaspiro[4.5]deca-7,9-dien-6-yl) benzene-1-sulfonamide HCl]",0.628 µM,0.832 µM,1.06 µM,5.34 µM,,0.6,0.8,0.1,0.2,≤ 10%,19%,18%,13%
"NC1=NC2(CCCC2)N(c2ccc(S(N)(=O)=O)cc2)C(N)=N1 (as salt: HCl) [Compound 6a, 4-(7,9-Diamino-6,8,10-triazaspiro[4.5]deca-7,9-dien-6-yl) benzene-1-sulfonamide HCl]",,,,,240 to 241 °C,,,,,,,,
"CC1(C)N=C(N)N=C(N)N1c1ccc(S(=O)(=O)Nc2nccs2)cc1 (as salt: HCl) [Compound 5c, 4-(4,6-Diamino-2,2-dimethyl-1,2-dihydro-1,3,5-triazin-1-yl)-N-(thiazol-2-yl)benzene-1-sulfonamide.HCl]",,,,,216 to 218 °C,,,,,,,,
"CC1(C)N=C(N)N=C(N)N1c1ccc(S(N)(=O)=O)cc1 [Compound 5a, 4-(4,6-Diamino-1-phenyl-1,2-dihydro-2,2-dimethyl-1,3,5-triazin-1-yl) benzene-1-sulfonamide HCl]",0.884 µM,0.913 µM,0.135 µM,3.52 µM,,6.7,6.8,0.3,0.2,29%,≤ 10%,≤ 10%,≤ 10%
"NC1=NC2(CCCCC2)N(c2ccc(S(N)(=O)=O)cc2)C(N)=N1 [Compound 6b, 4-(2,4-Diamino-1,3,5-triazaspiro[5.5]undeca-2,4-dien-1-yl)benzene-1-sulfonamide.HCl]",0.437 µM,0.915 µM,1.16 µM,4.85 µM,,0.4,0.8,0.1,0.2,28%,≤ 10%,≤ 10%,≤ 10%
"CC1(C)N=C(N)N=C(N)N1c1ccc(S(=O)(=O)Nc2nccs2)cc1 [Compound 5c, 4-(4,6-Diamino-2,2-dimethyl-1,2-dihydro-1,3,5-triazin-1-yl)-N-(thiazol-2-yl)benzene-1-sulfonamide.HCl]",> 10 µM,> 10 µM,> 10 µM,> 10 µM,,,,,,35%,11%,≤ 10%,≤ 10%
"CC1CCC2(CC1)N=C(N)N=C(N)N2c1ccc(S(=O)(=O)Nc2nccs2)cc1 (centres unmarked) [Compound 6j, 4-(2,4-Diamino-9-methyl-1,3,5-triazaspiro[5.5]undeca-2,4-dien-1-yl)-N-(1,3-thiazol-2-yl)benzene-1-sulfonamide.HCl]",> 10 µM,> 10 µM,> 10 µM,> 10 µM,,,,,,29%,17%,≤ 10%,≤ 10%

# More lines, main results first:
Ki (hCA I),Ki (hCA II),Ki (hCA IX),Ki (hCA XII),melting point,Selectivity index (SI) I/IX (hCA IX),Selectivity index (SI) II/IX (hCA IX),Selectivity index (SI) I/XII (hCA XII),Selectivity index (SI) II/XII (hCA XII),Structure (SMILES),inhibition at 10 µM (CNS cancer (SNB-75)),inhibition at 10 µM (Renal cancer (UO-31)),inhibition at 10 µM [1],inhibition at 10 µM (Leukemia (SR))
> 10 µM,> 10 µM,> 10 µM,> 10 µM,,,,,,"NC1=NC2(CCCCC2)N(c2ccc(S(=O)(=O)Nc3nccs3)cc2)C(N)=N1 [Compound 6i, 4-(2,4-Diamino-1,3,5-triazaspiro[5.5]undeca-2,4-dien-1-yl)-N-(1,3-thiazol-2-yl)benzene-1-sulfonamide.HCl]",≤ 10%,14%,≤ 10%,≤ 10%
,,,,216 to 218 °C,,,,,"NC1=NC2(CCCC2)N(c2ccc(S(=O)(=O)Nc3nccs3)cc2)C(N)=N1 (as salt: HCl) [Compound 6h, 4-{7,9-Diamino-6,8,10-triazaspiro[4.5]deca-7,9-dien-6-yl}-N-(1,3-thiazol-2-yl)benzene-1-sulfonamide.HCl]",,,,
,,,,217 to 219 °C,,,,,"CC1CCC2(CC1)N=C(N)N=C(N)N2c1ccc(S(=O)(=O)Nc2ccccn2)cc1 (centres unmarked) (as salt: HCl) [Compound 6f., 4-(2,4-Diamino-9-methyl-1,3,5-triazaspiro[5.5]undeca-2,4-dien-1-yl)-N-(pyridin-2-yl)benzene-1-sulfonamide.HCl]",,,,
,,,,221 to 223 °C,,,,,"NC1=NC2(CCCC2)N(c2ccc(S(=O)(=O)Nc3ccccn3)cc2)C(N)=N1 (as salt: HCl) [Compound 6d, 4-(7,9-Diamino-6,8,10-triazaspiro[4.5]deca-7,9-dien-6-yl}-N-(pyridin-2-yl)benzene-1-sulfonamide.HCl]",,,,
> 10 µM,> 10 µM,> 10 µM,> 10 µM,,,,,,"NC1=NC2(CCCC2)N(c2ccc(S(=O)(=O)Nc3nccs3)cc2)C(N)=N1 [Compound 6h, 4-{7,9-Diamino-6,8,10-triazaspiro[4.5]deca-7,9-dien-6-yl}-N-(1,3-thiazol-2-yl)benzene-1-sulfonamide.HCl]",≤ 10%,17%,≤ 10%,≤ 10%
,,,,239 to 241 °C,,,,,"NC1=NC2(CCCCCC2)N(c2ccc(S(=O)(=O)Nc3ccccn3)cc2)C(N)=N1 (as salt: HCl) [Compound 6g, 4-(2,4-Diamino-1,3,5-triazaspiro[5.6]dodeca-2,4-dien-1-yl)-N-(pyridin-2-yl)benzene-1-sulfonamide.HCl]",,,,
> 10 µM,> 10 µM,> 10 µM,> 10 µM,,,,,,"NC1=NC2(CCCCC2)N(c2ccc(S(=O)(=O)Nc3ccccn3)cc2)C(N)=N1 [Compound 6e, 4-(2,4-Diamino-1,3,5-triazaspiro[5.5]undeca-2,4-dien-1-yl)-N-(pyridin-2-yl)benzene-1-sulfonamide.HCl]",≤ 10%,11%,≤ 10%,≤ 10%
> 10 µM,> 10 µM,> 10 µM,> 10 µM,,,,,,"CC1CCC2(CC1)N=C(N)N=C(N)N2c1ccc(S(=O)(=O)Nc2ccccn2)cc1 (centres unmarked) [Compound 6f., 4-(2,4-Diamino-9-methyl-1,3,5-triazaspiro[5.5]undeca-2,4-dien-1-yl)-N-(pyridin-2-yl)benzene-1-sulfonamide.HCl]",23%,11%,≤ 10%,≤ 10%
> 10 µM,> 10 µM,> 10 µM,> 10 µM,,,,,,"NC1=NC2(CCCC2)N(c2ccc(S(=O)(=O)Nc3ccccn3)cc2)C(N)=N1 [Compound 6d, 4-(7,9-Diamino-6,8,10-triazaspiro[4.5]deca-7,9-dien-6-yl}-N-(pyridin-2-yl)benzene-1-sulfonamide.HCl]",30%,12%,≤ 10%,≤ 10%
> 10 µM,> 10 µM,> 10 µM,> 10 µM,,,,,,"NC1=NC2(CCCCCC2)N(c2ccc(S(=O)(=O)Nc3ccccn3)cc2)C(N)=N1 [Compound 6g, 4-(2,4-Diamino-1,3,5-triazaspiro[5.6]dodeca-2,4-dien-1-yl)-N-(pyridin-2-yl)benzene-1-sulfonamide.HCl]",33%,14%,≤ 10%,≤ 10%
